In patent US4720494A, “Anticholinergic eucatropine esters and antiperspirant use thereof” (priority 1984, dated 1988):
Several values for one entry are separate records, joined by “and”; a condition that tells them apart may be missing. Equal values may be shown once.

Key:
[1] = tested on: sweating of mouse foot (pilocarpine-stimulated); experiment: Mouse foot antiperspirant assay; type: in vivo, ICR/CD-1 male albino mice; conditions: for antiperspirant potency relative to eucatropine (in words): DCC esters, compared with parent eucatropine; for EC50: s.c. 5 μL in foot pad, pilocarpine-stimulated sweating, average EC50
Experimental: For the dose-response determination, four or five groups of 10 ICR/CD-1 male albino mice weighing approximately 20 gm were used. The animals were anaesthetized with 0.20 mL of a 250 mg/mL solution of ethyl carbamate injected intraperitoneally. Anticholinergic test solutions using 0.9% aqueous sodium chloride were injected subcutaneously under the plantar foot pads of the right hind feet of 10 mice per concentration. The 26 gauge, 2 in. needle of a Hamilton 5 μL syringe was inserted at the rear of the plantar surface and threaded forward. The dose, 5 μL, was delivered subcutaneously near the interdigital foot pads. Subsequently, both hind feet were coated with a 1:1 suspension of soluble starch in 2% ethanolic iodine-castor oil.
At 5 minutes after test solution injection, sweating was stimulated by injecting each animal intraperitoneally with 0.20 mL of 1 mg/mL pilocarpine.HCl in 0.9% aqueous sodium chloride. The appearance of blue-black spots within five minutes after stimulation by pilocarpine was the criterion for sweating. The criterion for the animals responding to the anticholinergic was absence of sweating on two or more tubercles of the treated foot. A 7X magnifying glass was used to enlarge the foot for evaluation.
As many concentrations were tested as needed to obtain two points with more than 50% but less than 100% of the animals responding and two points with less than 50% but more than 0% of the animals responding.
For some esters it was necessary to alter the concentration interval to obtain the appropriate spread of responses in a minimum of trials. […] Each compound was run at least twice. The average EC50 was used for comparison with other anticholinergics.

[2] = tested on: pupil light reflex of rabbit eye; experiment: Rabbit abolition of light reflex assay (RALR), mydriasis
Excerpt: In order to determine the potential for mydriasis produced by the anticholinergic antiperspirant compositions of our invention, the rabbit abolition of light reflex assay was employed. In this assay, solutions of test compounds are instilled in the eyes of rabbits and response to light stimulus followed as a function of time.
The test animals used were female, New Zealand albino rabbits which were 12 to 14 weeks old when first used for testing. A test group consisted of fifteen animals and could be used 8 to 10 weeks before the rabbits became too large to handle.
Prior to the first use of a rabbit group, a determination of the responsiveness of each pupil to a light stimulus was determined. Under room illumination provided by fluorescent tubes, the bilateral symmetry of the pupil light reflex was ascertained by directing a beam of light from a penlight-type of flashlight into each pupil. If proper response was present, the animals were subsequently used.
The mydriatic response to an anticholinergic was determined in the following manner. The animals were held in wooden restrainer boxes during the test. The distance between the mid-sagittal plane of one animal and that of the immediately adjacent animal was 11 inches. Into one conjunctival sac of each animal was installed 0.1 mL of a given concentration of the compound under test in 0.9% sodium chloride. […] Thus, for eucatropine derivatives, solutions were prepared to correspond to one percent eucatropine.HCl. After installation of the solution, the lids of the treated eye were held closed for one minute to prevent the loss of the test dose. After this time the lids were held open by gentle finger pressure, and the cornea and conjunctival sac irrigated with one mL of 0.9% aqueous sodium chloride applied in drops from a 10 mL syringe. The procedure was repeated in the other eye using 0.1 mL 0.9% saline as a control. Each rabbit was treated at two to three minutes following the preceding rabbit.
Observation of the rabbit eye pupil size was made at 30, 60 and 120 minutes after treatment by directing a penlight beam into each pupil. The response of both pupils to light was observed. Any degree of contraction of the pupil of the treated eye which was obviously less than that of the untreated eye was recorded as incomplete (partial) inhibition of the reflex. Failure of the pupil of the treated eye to contract in response to light was recorded as complete inhibition of the reflex. The responses of each rabbit were recorded. Both partial and complete inhibition were recorded as inhibited. The animals were not used again for at least 72 hours and the same eye was not used for treatment by test solutions in successive experiments.

[3] = esters synthesized by DCC method
[4] = esters synthesized by DCC method, fraction of animals with inhibition at 60 min, 1% solutions based on eucatropine
[5] = esters synthesized via acid chloride
[6] = esters synthesized via acid chloride, fraction of animals with inhibition at 60 min, 1% solutions based on eucatropine

Compound | antiperspirant potency relative to eucatropine (in words) [1] | EC50 [1, 3] | RALR (60 min.) ([2]; rabbit, in vivo) | RALR (60 min.) [2, 4] | also measured
CC1CC(OC(=O)C(OC(=O)c2cnccn2)c2ccccc2)CC(C)(C)N1C.Cl (centres unmarked) | a reduction in EC50 over eucatropine | 11 mM | 0.80 | – | mydriasis in the rabbit eye (in words) ([2]; rabbit, in vivo): reduced mydriasis
CC1CC(OC(=O)C(OC(=O)c2cnc3ccccc3c2)c2ccccc2)CC(C)(C)N1C.Cl (centres unmarked) | a reduction in EC50 over eucatropine | 10 mM | – | 0.73 | mydriasis in the rabbit eye (in words) ([2]; compared with eucatropine): reduced mydriasis
CC1CC(OC(=O)C(OC(=O)c2ccc(N(C)C)cc2)c2ccccc2)CC(C)(C)N1C.Cl (centres unmarked) | – | 25 mM | – | 0.27 | –
CC1CC(OC(=O)C(OC(=O)c2ccnc3ccccc23)c2ccccc2)CC(C)(C)N1C.Cl (centres unmarked) | a reduction in EC50 over eucatropine | – | – | 0.60 | mydriasis in the rabbit eye (in words) ([2]; compared with eucatropine): reduced mydriasis
CC1CC(OC(=O)C(OC(=O)C2CCC2)c2ccccc2)CC(C)(C)N1C.Cl (centres unmarked) | – | 18 mM | 1.00 | – | –
CC1CC(OC(=O)C(OC(=O)C2CCCCC2)c2ccccc2)CC(C)(C)N1C.Cl (centres unmarked) | – | 41 mM | – | – | EC50 [1, 5]: 43 mM
CC1CC(OC(=O)C(OC(=O)CC2CCCCC2)c2ccccc2)CC(C)(C)N1C.Cl (centres unmarked) | – | 87 mM | 0.67 | – | –
CC1CC(OC(=O)C(OC(=O)CC2CCCC2)c2ccccc2)CC(C)(C)N1C.Cl (centres unmarked) | – | 67 mM | 1.00 | – | –
CC1CC(OC(=O)C(OC(=O)C2CC2)c2ccccc2)CC(C)(C)N1C.Cl (centres unmarked) | – | 4.7 mM and 4.8 mM | 1.00 | – | EC50 [1, 5]: 36 mM
CC1CC(OC(=O)C(OC(=O)c2ccncc2)c2ccccc2)CC(C)(C)N1C.Cl (centres unmarked) | only a slight decrease in antiperspirant potency relative to eucatropine | 5.2 mM | 0.00 | – | mydriasis in the rabbit eye (in words) ([2]; rabbit, in vivo): no mydriasis
CC1CC(OC(=O)C(OC(=O)c2ccccn2)c2ccccc2)CC(C)(C)N1C.Cl (centres unmarked) | only a slight decrease in antiperspirant potency relative to eucatropine | 2 mM | 0.40 | – | –
CC1CC(OC(=O)C(OC(=O)C(Cl)c2ccccc2)c2ccccc2)CC(C)(C)N1C.Cl (centres unmarked) | equalled or nearly equalled that of the parent eucatropine | 1.4 mM | – | – | –
COc1ccc(C(=O)OC(C(=O)OC2CC(C)N(C)C(C)(C)C2)c2ccccc2)cc1.Cl (centres unmarked) | – | 16 mM | – | – | –
O=C(O)C1CCCC1 [Cyclopentanecarboxylate] | – | 78 mM | 0.67 | – | –
CC1CC(OC(=O)C(O)c2ccccc2)CC(C)(C)N1C (centres unmarked) [H, eucatropine] | – | – | 1.00 | – | EC50 ([1]; Mus musculus, sc, parent eucatropine (ester group H)): 7.2 mM; incomplete response (light reflex) in rabbits at 60 minutes ([2]; rabbit, in vivo): eight out of eight
CC(C)C(=O)O [Isobutyrate] | – | 1.6 mM | 0.88 | – | –
CC1CC(OC(=O)C(OC(=O)c2cccnc2)c2ccccc2)CC(C)(C)N1C.Cl (centres unmarked) [Nicotinate] | only a slight decrease in antiperspirant potency relative to eucatropine | 6.5 mM | – | 0.60 | –
CCCCCCCC(=O)OC(C(=O)OC1CC(C)N(C)C(C)(C)C1)c1ccccc1.Cl (centres unmarked) [Octanoate] | – | 11 mM | – | 0.93 | EC50 [1, 5]: 9.6 mM; RALR (60 min.) [2, 6]: 0.50
Cc1ccc(C(=O)OC(C(=O)OC2CC(C)N(C)C(C)(C)C2)c2ccccc2)cc1.Cl (centres unmarked) [p-Toluate] | – | 84 mM | – | – | –
Benzoate | more potent than eucatropine | 0.3 mM | – | 0.88 and 0.87 | EC50 [1, 5]: 25 mM; RALR (60 min.) [2, 6]: 0.20
Phenylacetate | equalled or nearly equalled that of the parent eucatropine | 5.3 mM | – | 1.00 | EC50 [1, 5]: 78 mM; RALR (60 min.) [2, 6]: 0.47
